Laboratory results: ChEMBL document CHEMBL1147408, “Modulation of selective serotonin reuptake inhibitor and 5-HT1A antagonist activity in 8-aza-bicyclo[3.2.1]octane derivatives of 2,3-dihydro-1,4-benzodioxane” (Bioorg Med Chem Lett, 2004)

How the values were obtained:
[1] = target: T1, 5-hydroxytryptamine receptor 1A (Homo sapiens, UniProt P08908); experiment: Displacement of [3H]8-OH-DPAT from human 5-hydroxytryptamine 1A receptor expressed in CHO cells; assay type: cell-based
T1 sequence (P08908 whole entry): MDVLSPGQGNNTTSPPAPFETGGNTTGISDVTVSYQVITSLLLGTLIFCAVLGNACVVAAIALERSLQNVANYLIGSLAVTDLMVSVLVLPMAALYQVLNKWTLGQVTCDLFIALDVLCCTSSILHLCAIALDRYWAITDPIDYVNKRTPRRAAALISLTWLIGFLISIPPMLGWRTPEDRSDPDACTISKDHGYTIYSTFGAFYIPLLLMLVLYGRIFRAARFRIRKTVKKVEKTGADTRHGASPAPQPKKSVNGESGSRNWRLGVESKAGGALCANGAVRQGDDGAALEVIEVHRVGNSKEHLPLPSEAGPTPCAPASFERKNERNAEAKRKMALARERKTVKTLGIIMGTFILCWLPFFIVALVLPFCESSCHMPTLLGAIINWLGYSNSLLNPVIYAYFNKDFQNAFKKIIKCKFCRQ

[2] = target: T2, Adrenergic receptor alpha-1 (Rattus norvegicus, UniProt P15823+P23944+P43140); experiment: Displacement of [3H]prazosin from alpha-1 adrenergic receptor; assay type: protein assay
T2 sequence (P15823 whole entry): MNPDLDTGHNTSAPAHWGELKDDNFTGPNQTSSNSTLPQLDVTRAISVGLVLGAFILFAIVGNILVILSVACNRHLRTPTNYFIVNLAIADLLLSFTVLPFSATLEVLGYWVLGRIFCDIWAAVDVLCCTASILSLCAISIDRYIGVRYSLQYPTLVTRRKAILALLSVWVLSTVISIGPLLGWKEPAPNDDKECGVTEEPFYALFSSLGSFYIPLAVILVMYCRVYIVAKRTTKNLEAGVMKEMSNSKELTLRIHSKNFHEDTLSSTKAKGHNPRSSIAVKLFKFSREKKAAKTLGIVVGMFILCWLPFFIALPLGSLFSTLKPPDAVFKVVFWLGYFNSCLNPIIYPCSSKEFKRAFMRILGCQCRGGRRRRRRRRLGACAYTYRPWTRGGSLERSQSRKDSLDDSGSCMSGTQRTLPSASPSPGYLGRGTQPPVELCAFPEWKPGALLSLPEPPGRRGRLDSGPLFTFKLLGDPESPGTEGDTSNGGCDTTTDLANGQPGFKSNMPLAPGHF
T2 sequence (P23944 whole entry): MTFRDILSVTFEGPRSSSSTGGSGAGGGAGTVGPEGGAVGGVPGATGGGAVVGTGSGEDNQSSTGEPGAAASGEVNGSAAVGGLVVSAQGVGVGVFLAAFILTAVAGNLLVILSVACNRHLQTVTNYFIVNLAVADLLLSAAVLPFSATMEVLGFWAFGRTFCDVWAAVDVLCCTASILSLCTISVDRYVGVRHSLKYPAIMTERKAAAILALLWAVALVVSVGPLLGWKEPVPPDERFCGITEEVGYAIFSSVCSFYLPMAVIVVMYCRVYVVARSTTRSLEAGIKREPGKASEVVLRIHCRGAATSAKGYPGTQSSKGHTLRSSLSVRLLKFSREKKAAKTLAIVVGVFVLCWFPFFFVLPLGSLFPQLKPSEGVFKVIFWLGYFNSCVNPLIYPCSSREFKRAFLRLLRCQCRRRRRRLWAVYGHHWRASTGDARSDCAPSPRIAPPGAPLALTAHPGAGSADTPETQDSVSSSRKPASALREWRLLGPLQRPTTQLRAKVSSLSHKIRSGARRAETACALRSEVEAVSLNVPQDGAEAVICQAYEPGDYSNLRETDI
T2 sequence (P43140 whole entry): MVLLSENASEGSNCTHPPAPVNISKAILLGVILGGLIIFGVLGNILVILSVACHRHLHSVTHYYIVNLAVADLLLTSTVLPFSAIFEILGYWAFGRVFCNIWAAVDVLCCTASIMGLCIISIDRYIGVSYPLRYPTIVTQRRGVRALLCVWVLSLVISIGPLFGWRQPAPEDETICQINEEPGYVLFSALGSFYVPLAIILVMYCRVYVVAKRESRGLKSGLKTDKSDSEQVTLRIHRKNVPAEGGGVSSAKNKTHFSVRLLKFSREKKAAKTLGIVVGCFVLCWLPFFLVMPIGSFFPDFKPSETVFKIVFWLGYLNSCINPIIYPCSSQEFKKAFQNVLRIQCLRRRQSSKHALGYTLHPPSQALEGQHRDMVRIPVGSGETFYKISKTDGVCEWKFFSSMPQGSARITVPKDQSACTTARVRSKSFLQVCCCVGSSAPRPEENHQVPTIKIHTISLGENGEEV

[3] = target: Sodium-dependent serotonin transporter (Rattus norvegicus) (UniProt P31652); experiment: Inhibition of serotonin transporter; set-up: concentration or dose not given beside the values; conditions: concentration not given here
[4] = target: T1, 5-hydroxytryptamine receptor 1A; experiment: (§1) Agonistic activity of compound towards 5-hydroxytryptamine 1A receptor was evaluated by [35S]GTP-gamma-S, stimulated cAMP assay; assay type: functional
[5] = target: T3, 5-hydroxytryptamine receptor 1A (Homo sapiens) (UniProt P08908); experiment: as §1; assay type: functional
T3 sequence (whole entry): T1 sequence (P08908 whole entry)

[6] = target: T1, 5-hydroxytryptamine receptor 1A; experiment: Agonistic activity of compound towards 5-hydroxytryptamine 1A receptor was evaluated by forskolin stimulated cAMP assay; assay type: functional
[7] = target: T4, Sodium-dependent serotonin transporter (Homo sapiens, UniProt P31645); experiment: Inhibitory activity of compound against serotonin transport by RB5-5-HT transporter
[8] = target: T4, Sodium-dependent serotonin transporter; experiment: Inhibitory activity of compound against serotonin transport by HC5-5-HT transporter
[9] = target: Adrenergic receptor alpha-1 (Homo sapiens) (UniProt P35348+P25100+P35368); experiment: Inhibition of [3H]prazosin binding to alpha-1 adrenergic receptor at 100 nM compound concentration; assay type: protein assay
[10] = target: T3, 5-hydroxytryptamine receptor 1A (Homo sapiens); experiment: Inhibition of [3H]8-OH-DPAT binding to human 5-hydroxytryptamine 1A receptor at 1000 nM compound concentration

T4 sequence (P31645 whole entry): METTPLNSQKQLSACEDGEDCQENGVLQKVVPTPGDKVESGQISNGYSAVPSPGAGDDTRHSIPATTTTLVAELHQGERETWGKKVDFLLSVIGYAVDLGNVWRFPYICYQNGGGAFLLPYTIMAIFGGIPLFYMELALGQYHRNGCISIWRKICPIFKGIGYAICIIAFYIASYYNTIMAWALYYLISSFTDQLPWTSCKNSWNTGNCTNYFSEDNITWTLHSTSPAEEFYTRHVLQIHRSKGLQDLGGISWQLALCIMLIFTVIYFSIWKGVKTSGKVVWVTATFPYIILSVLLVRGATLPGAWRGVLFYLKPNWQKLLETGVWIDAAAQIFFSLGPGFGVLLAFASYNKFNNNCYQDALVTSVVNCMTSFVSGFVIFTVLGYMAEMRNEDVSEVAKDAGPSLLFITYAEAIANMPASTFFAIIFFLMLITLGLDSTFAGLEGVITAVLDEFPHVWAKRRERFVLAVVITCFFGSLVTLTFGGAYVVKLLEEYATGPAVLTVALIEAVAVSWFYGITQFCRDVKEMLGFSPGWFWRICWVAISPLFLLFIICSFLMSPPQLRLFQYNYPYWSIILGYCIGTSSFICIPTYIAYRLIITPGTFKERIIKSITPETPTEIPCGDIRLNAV
Sequence of Sodium-dependent serotonin transporter (Rattus norvegicus) (P31652 whole entry): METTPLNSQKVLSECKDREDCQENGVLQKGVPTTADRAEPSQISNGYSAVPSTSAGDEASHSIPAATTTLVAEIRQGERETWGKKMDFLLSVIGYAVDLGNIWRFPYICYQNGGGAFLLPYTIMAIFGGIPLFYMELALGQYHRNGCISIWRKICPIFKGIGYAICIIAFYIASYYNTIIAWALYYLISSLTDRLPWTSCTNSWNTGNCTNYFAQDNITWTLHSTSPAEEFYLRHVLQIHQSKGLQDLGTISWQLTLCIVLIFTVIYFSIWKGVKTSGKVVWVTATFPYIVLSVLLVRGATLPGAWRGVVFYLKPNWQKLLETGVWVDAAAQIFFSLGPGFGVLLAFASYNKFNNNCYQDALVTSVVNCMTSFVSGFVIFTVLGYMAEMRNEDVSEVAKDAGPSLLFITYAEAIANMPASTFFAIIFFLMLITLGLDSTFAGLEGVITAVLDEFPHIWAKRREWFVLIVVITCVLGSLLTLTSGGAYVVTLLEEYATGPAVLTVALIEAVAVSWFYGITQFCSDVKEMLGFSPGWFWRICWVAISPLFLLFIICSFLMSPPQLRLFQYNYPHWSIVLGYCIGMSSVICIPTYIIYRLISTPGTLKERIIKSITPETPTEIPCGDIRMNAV

Row | SMILES | Ki [1] [nM] | Ki [2] [nM] | inhibition [3] [%] | IC50 [4] [nM] | Imax [5] [%] | IC50 [6] [nM] | Emax [5] [%] | Ki [7] [nM] | IC50 [8] [nM] | inhibition [9] [%] | inhibition [10] [%]
1 | CCOc1cccc2c1O[C@@H](CN1[C@@H]3CC[C@H]1C[C@](O)(c1csc4ccccc14)C3)CO2 | 16.7 | 123.5 | 4 |  |  |  |  |  |  |  | 
2 | COc1cccc2c1O[C@@H](CN1[C@@H]3CC[C@H]1C[C@](O)(c1ccccc1)C3)CO2 | 1.53 |  | 0 | 25 | 100 | 21 |  |  |  |  | 
3 | COc1cccc2c1O[C@@H](CN1[C@@H]3CC[C@H]1C[C@](O)(c1ccc4ccccc4c1)C3)CO2 | 0.81 | 42 |  | 9.85 | 100 | 21 |  |  |  |  | 
4 | COc1cccc2c1O[C@@H](CN1[C@@H]3CC[C@H]1C[C@](O)(c1cccc(C(F)(F)F)c1)C3)CO2 | 0.33 | 9.9 | 9 |  |  |  | 90 |  |  |  | 
5 | COc1cccc2c1O[C@@H](CN1C3C=C(c4cccc5cccnc45)CC1CC3)CO2 (stereo partly drawn) | 307 | 46.2 |  |  |  |  |  | 33 | 109 |  | 
6 | CCOc1cccc2c1O[C@@H](CN1[C@@H]3CC[C@H]1C[C@](O)(c1ccccn1)C3)CO2 | 61.6 | 147 | 6 |  |  |  |  |  |  |  | 
7 | COc1ccccc1[C@]1(O)C[C@H]2CC[C@@H](C1)N2C[C@H]1COc2cccc(OC)c2O1 | 39 |  | 12 |  |  |  | 40 |  |  |  | 
8 | CCOc1cccc2c1O[C@@H](CN1[C@@H]3CC[C@H]1C[C@](O)(c1ccc4ccccc4c1)C3)CO2 | 5.87 | 103.5 | 0 |  |  |  |  |  |  |  | 
9 | COc1cccc2c1O[C@@H](CN1[C@@H]3CC[C@H]1C[C@](O)(c1ccccn1)C3)CO2 | 46 |  | 0 | 1480 | 100 |  |  |  |  |  | 
10 | COc1cccc2c1O[C@@H](CN1C3C=C(c4cccc5ccccc45)CC1CC3)CO2 (stereo partly drawn) | 357 |  |  |  |  |  |  | 26 | 951 | 26 | 
11 | COc1cccc2c1O[C@@H](CN1C3C=C(n4ccc5cc(F)ccc54)CC1CC3)CO2 (stereo partly drawn) | 128 | 71 |  |  |  |  |  | 8.5 | 138 |  | 
12 | CCOc1cccc2c1O[C@@H](CN1[C@@H]3CC[C@H]1C[C@](O)(c1cccc(C(F)(F)F)c1)C3)CO2 | 2.92 | 12.9 | 0 |  |  |  |  |  |  |  | 
13 | COc1cccc2c1O[C@@H](CN1[C@@H]3CC[C@H]1C[C@](O)(c1csc4ccccc14)C3)CO2 | 1.6 | 106 | 0 | 36 | 92 | 130 | 0 |  |  |  | 
14 | CCOc1cccc2c1O[C@@H](CN1[C@@H]3CC[C@H]1C[C@](O)(c1ccccc1)C3)CO2 | 3.05 | 32.7 | 0 |  |  |  |  |  |  |  | 
15 | COc1cccc2c1O[C@@H](CN1C3C=C(c4ccc(Cl)c(Cl)c4)CC1CC3)CO2 (stereo partly drawn) |  | > 1000 |  |  |  |  |  | 4.69 | 260 |  | 35
16 | COc1cccc2c1O[C@@H](CN1C3C=C(c4ccc5ccccc5c4)CC1CC3)CO2 (stereo partly drawn) |  | 229 |  |  |  |  |  | 1.4 | 767 |  | 43
